Test results published in patent US10471044B2, “Post nerve injury rehabilitation effect-enhancing agent comprising alkyl ether derivative or salt thereof” (FUJIFILM Toyama Chemical Co., Ltd., priority 2014, dated 2019).

How the values were obtained:
[1] = system: forelimb function lost after freezing damage-induced brain injury; experiment: Recovery by training of forelimb function lost after freezing damage-induced brain injury; assay type: in vivo, C57BL/6J mice; conditions: mice, oral twice a day 30 mg/kg/time plus training 30 min/day, evaluated 21-49 days after damage, compared to the other groups (control, Compound A without training, training only), FIG. 1
Experimental: Action of enhancing the recovery effect obtained by training the forelimb function lost after freezing damage-induced brain injury was examined. A test was performed using the following method, by referring to the method described in Journal of Neuroscience Methods, Vol. 193, Issue 1, Pages 82-85 (2010) and Nature, Vol. 462, Issue 7275, Pages 915-919 (2009). Six-week-old male C57BL/6J mice (Charles River Japan) were used in the test. The mice were raised in an environment in which they had free access to feed and water, under a light-dark cycle of 12 hours (light period: 7:00-19:00, dark period: 19:00-7:00). The mice were randomly assigned to the groups. [table] An acrylic rectangular enclosure (length×width×height; 15×8.5×20 cm) in which only the front face of the four faces was transparent, and the other three faces were black was used. A slit measuring 0.5 cm in width×13 cm in height was formed on the right side of the front face when seen from the front. A transparent acrylic plate measuring 8.5 cm in width×1.25 cm in height was used as the feed plate. Diced almonds (K's Factory, Co., Ltd.) were used as the feed for use in the evaluation. […] A case where a mouse was able to extend the left forelimb through the slit, and carry the diced almond into the mouth without dropping it was determined to be successful. […]

[2] = system: upper limb function lost after brain injury; experiment: Recovery by rehabilitation-like training of upper limb function lost after brain injury (internal capsule hemorrhage cynomolgus monkey models); assay type: in vivo, cynomolgus monkeys; conditions: 1 animal
From the text: Test Example 3 Action of enhancing the recovery effect obtained with rehabilitation-like training of the upper limb function lost after brain injury was examined, using internal capsule hemorrhage cynomolgus monkey models.
Two male cynomolgus monkeys (Tsukuba Primate Research Center, National Institute of Biomedical Innovation) were used in the test. The cynomolgus monkeys were raised in a breeding cage for old world monkeys (length×width×height; 79×47×80 cm) in which they had free access to feed and water, under a light-dark cycle of 12 hours (light period: 7:00-19:00 dark period: 19:00-7:00).
Motor learning and an upper limb function evaluation were performed by making the cynomolgus monkeys take feed provided in front of the breeding cage. A 3.5- or 7 mm square piece of apple was used as the feed for use in the evaluation.
In order to allow the cynomolgus monkeys to acclimate to the testing apparatus, and determine the dominant hand of each of the individuals, a 7 mm square piece of apple attached to a needle tip was provided in the center of the front face of the cage, and the behavior of the cynomolgus monkey taking the feed was observed. The hand more often used in a total of 150 trials (30 trials a day for 5 days) was determined as its dominant hand. […]

[3] = system: forelimb function lost after internal capsule hemorrhage-induced brain injury; experiment: Recovery by training of forelimb function lost after internal capsule hemorrhage-induced brain injury (mouse models); assay type: in vivo, C57BL/6J mice; conditions: mice, oral once a day 20 mg/kg/time plus training 30 min/day, evaluated 31-63 days after induction, compared to trained control group, FIG. 2
Experimental: Action of enhancing the recovery effect obtained by training the forelimb function lost after internal capsule hemorrhage-induced brain injury was examined, using internal capsule hemorrhage mouse models. A test was carried out using the following method, by referring to Plos One, Vol. 8, e67691 (2013) and Behav Brain Res., Vol. 20, Issue 225, Pages 126-34 (2011). Six-week-old male C57BL/6J mice (Charles River Japan) were used in the test. The mice were raised in an environment in which they had free access to feed and water, under a light-dark cycle of 12 hours (light period: 7:00-19:00, dark period: 19:00-7:00). The mice were randomly assigned to the groups. [table] An acrylic rectangular enclosure (length×width×height; 15×8.5×20 cm) in which only the front face of the four faces was transparent, and the other three faces were black was used. A slit measuring 0.5 cm in width×13 cm in height was formed on the right side of the front face when seen from the front. A transparent acrylic plate measuring 8.5 cm in width×1.25 cm in height was used as the feed plate. Diced almonds (K's Factory, Co., Ltd.) were used as the feed for use in the evaluation. […] A case where a mouse was able to extend the left forelimb through the slit, and carry the diced almond into the mouth without dropping it was determined to be successful. […]

For `OC1CN(CCCOCCc2ccc3sccc3c2)C1` [Compound A, 1-(3-(2-(1-benzothiophen-5-yl)ethoxy)propyl)azetidin-3-ol], the “relative recovery rate (success rate of taking feed with left forelimb)” value [1] was “much higher relative recovery rate within a short period”, the “recovery after the brain injury (upper limb function)” value ([2]; intramuscular once a day 3 mg/kg/time plus rehabilitation-like training, versus trained animal without Compound A (recovery limited)) was “remarkable tendency to recovery was observed” and the accurate grasping ([2]; intramuscular once a day 3 mg/kg/time, after the beginning of the rehabilitation-like training, not observed in animal without Compound A) was “accurate grasping similar to that before the brain injury was observed”. The “relative recovery rate (success rate of taking feed with left forelimb)” value [3] was “much higher relative recovery rate”.
